# Test results taken from patent publication US20060063702A1, “Neuromedin U 2 receptor agonists and uses thereof” (priority 2004, published 2006).
# “Also recorded” adds a separate entry of the source. Where no end group is shown, it is not given here.
# Tests used:
# human NMU-2R [1] = target: T1, human NMU-2R (Homo sapiens, UniProt Q9GZQ4); experiment: NMU-2R reporter gene (luciferase) assay in HEK-293/NMU-2R/3MCS/Luci cells; format: cell-based; conditions: for activation of NMU-2R, expression of reporter gene luciferase: in the presence of forskolin 5 μmol/L
# T1 construct: expressed in transfected cells
# Description: Establishment of stable cell line: HEK-293 cells were maintained in DMEM with 10% FBS (Gibco) and 1% non-essential amino acid at 37° C. […] Twenty-four hours after transfection, cell culture medium was replaced with fresh medium containing G418 at final concentration of 800 mg/L. Stable cell line was generated using limited dilution based on the luciferase activity in the presence of NmU and forskolin (5 μmol/L). The stable cell line was named HEK-293/NMU-2R/3MCS/Luci cells. Luciferase assay and screening for NMU-2R agonists: The luciferase activity was measured according to the protocol from Promega. Briefly, 100 μL of HEK-293/NMU-2R/3MCS/Luci cells at 4×10^4 cells/mL were added into each well of white 96 -well plate (flat, clear bottom, Costar). The cells were maintained in DMEM containing 10% FBS (Gibco) and 1% non-essential amino acid, and incubated at 37° C., 5% CO2 overnight. […] Finally, 110 μL of luciferase substrate Bright GloTM (Promega) was added into each well. Luciferase activity was measured using […] (Molecular Device).
# other GPCRs = experiment: Specificity assay in more than twenty other GPCR stable cell lines; format: cell-based
# Description: Several stable cell lines were generated to examine the specificity of the compounds. First, the activity of the compounds in cell line expressing the reporter gene alone were tested. Since the reporter gene cell line was not transfected with NMU-2R expression vector, compounds that can activate the reporter gene expression in this cell line were not NMU-2R agonists. In addition, the compounds in cell lines expressing other GPCRs were tested. More than twenty different GPCR stable cell lines were generated for the specificity assay.
# NMU-1R = target: T2, NMU-1R (Homo sapiens, UniProt Q9HB89); experiment: Activity for NMU-1R; format: cell-based
# T2 sequence (Q9HB89 1-426): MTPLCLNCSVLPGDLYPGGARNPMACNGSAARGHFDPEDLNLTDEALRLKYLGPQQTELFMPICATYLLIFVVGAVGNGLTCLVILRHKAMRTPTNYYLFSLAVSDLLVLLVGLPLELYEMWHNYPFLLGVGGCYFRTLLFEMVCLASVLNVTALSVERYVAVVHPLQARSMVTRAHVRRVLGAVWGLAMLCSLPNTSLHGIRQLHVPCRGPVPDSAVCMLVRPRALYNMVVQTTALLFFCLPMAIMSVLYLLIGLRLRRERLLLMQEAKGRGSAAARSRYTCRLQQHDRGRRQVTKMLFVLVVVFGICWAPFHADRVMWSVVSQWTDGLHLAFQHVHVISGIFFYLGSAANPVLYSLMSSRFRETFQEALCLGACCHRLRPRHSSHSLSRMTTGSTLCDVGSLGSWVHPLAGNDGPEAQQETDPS
# human NMU-2R [2] = target: T1, human NMU-2R; conditions: literature refs 5-7, 15-20; cited from earlier work
# T1 sequence (Q9GZQ4 whole entry): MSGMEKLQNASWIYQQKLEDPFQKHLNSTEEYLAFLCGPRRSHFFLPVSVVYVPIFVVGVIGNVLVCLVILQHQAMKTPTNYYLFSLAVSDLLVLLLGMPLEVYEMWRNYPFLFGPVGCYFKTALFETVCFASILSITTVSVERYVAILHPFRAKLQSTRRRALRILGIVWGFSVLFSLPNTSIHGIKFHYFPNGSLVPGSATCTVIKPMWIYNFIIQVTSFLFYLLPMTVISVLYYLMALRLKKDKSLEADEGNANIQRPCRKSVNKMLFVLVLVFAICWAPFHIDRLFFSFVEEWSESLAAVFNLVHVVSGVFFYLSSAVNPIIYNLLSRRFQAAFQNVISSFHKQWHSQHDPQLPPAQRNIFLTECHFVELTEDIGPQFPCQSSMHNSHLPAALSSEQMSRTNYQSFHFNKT
Molecule,"activation of NMU-2R, expression of reporter gene luciferase (human NMU-2R [1])",effect on other GPCRs (other GPCRs),activity for NMU-1R (NMU-1R),"induction of reporter gene expression (human NMU-2R [1]; NmU alone, without forskolin)",potency of receptor activation (human NMU-2R [2])
COc1ccc([C@@H]2CC(=O)c3c(O)cc(O[C@@H]4O[C@H](CO[C@@H]5O[C@@H](C)[C@H](O)[C@@H](O)[C@H]5O)[C@@H](O)[C@H](O)[C@H]4O)cc3O2)cc1O [Hesperidin],potential NMU-2R agonists,,,,
COc1ccc(-c2oc3c(CC=C(C)C)c(O[C@@H]4O[C@H](CO)[C@@H](O)[C@H](O)[C@H]4O)cc(O)c3c(=O)c2O[C@@H]2O[C@@H](C)[C@H](O)[C@@H](O)[C@H]2O)cc1 [Icariin],potential NMU-2R agonists,,,,
C[C@@H]1O[C@@H](OC[C@H]2O[C@@H](Oc3c(-c4ccc(O)c(O)c4)oc4cc(O)cc(O)c4c3=O)[C@H](O)[C@@H](O)[C@@H]2O)[C@H](O)[C@H](O)[C@H]1O [Rutin],,no activity,no activity,,
"Neuromedin U (FRVDEEFQSPFASQSRGYFLFRPRN; ends and bridges not checked; UniProt P48645 142-166, looked up) [NmU, peptide hormone, natural ligand for NMU-2R]",best response; also recorded: significantly increased,,,only slightly induced,nanomolar range
